Earlier results on one compound are cited in patent publication US20030093057A1, “Methods and formulations for photodynamic therapy” (priority 2001, published 2003).

Structures are written as SMILES. Like-named read-outs stand apart in the source and are kept apart here.

The conditions of data set [1]: mouse skin.
The conditions of data set [2]: human skin.

`NCC(=O)CCC(=O)O` [ALA, delta-aminolevulinic acid]: the “penetration of ALA into skin at increased temperature” value in data set [1] and in data set [2] was “did not cause increased penetration” in each case.
